Measurements published in PubChem BioAssay (NCI).
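Five compound concentrations were applied to cells in 96-well plates for 48 hours; endpoints were derived by simple linear interpolation of the resulting dose-response curve. Definition used: TGI = concentration required for complete inhibition of growth.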

Assays:
Experiment in all cases: NCI-60 cell line screen, 48 h
OVCAR-4 ovarian = test system: OVCAR-4 ovarian
SW-620 colon = test system: SW-620 colon
HCC-2998 colon = test system: HCC-2998 colon
SR leukemia = test system: SR leukemia
UACC-257 melanoma = test system: UACC-257 melanoma
HOP-62 NSCLC = test system: HOP-62 NSCLC
KM12 colon = test system: KM12 colon
ACHN renal = test system: ACHN renal
OVCAR-5 ovarian = test system: OVCAR-5 ovarian
HCT-15 colon = test system: HCT-15 colon
OVCAR-8 ovarian = test system: OVCAR-8 ovarian
NCI-H460 lung = test system: NCI-H460 lung
786-0 renal = test system: 786-0 renal
MDA-N = test system: MDA-N
EKVX NSCLC = test system: EKVX NSCLC
SN12C renal = test system: SN12C renal
UO-31 renal = test system: UO-31 renal
A498 renal = test system: A498 renal
CAKI-1 renal = test system: CAKI-1 renal
SK-MEL-5 melanoma = test system: SK-MEL-5 melanoma
NCI-H226 lung = test system: NCI-H226 lung
NCI-H522 lung = test system: NCI-H522 lung
SK-OV-3 ovarian = test system: SK-OV-3 ovarian
DU-145 prostate = test system: DU-145 prostate
RPMI-8226 leukemia = test system: RPMI-8226 leukemia
HL-60(TB) leukemia = test system: HL-60(TB) leukemia
HT29 colon = test system: HT29 colon
M14 melanoma = test system: M14 melanoma
MOLT-4 leukemia = test system: MOLT-4 leukemia
MCF7 breast = test system: MCF7 breast
K-562 leukemia = test system: K-562 leukemia
MALME-3M melanoma = test system: MALME-3M melanoma
SK-MEL-2 melanoma = test system: SK-MEL-2 melanoma
IGROV1 ovarian = test system: IGROV1 ovarian
SF-539 CNS = test system: SF-539 CNS
UACC-62 melanoma = test system: UACC-62 melanoma
SF-295 CNS = test system: SF-295 CNS
T-47D breast = test system: T-47D breast
SNB-19 CNS = test system: SNB-19 CNS
MDA-MB-231 breast = test system: MDA-MB-231 breast
BT-549 breast = test system: BT-549 breast
SK-MEL-28 melanoma = test system: SK-MEL-28 melanoma
NCI-H23 lung = test system: NCI-H23 lung
MDA-MB-435 = test system: MDA-MB-435
PC-3 prostate = test system: PC-3 prostate
U251 CNS = test system: U251 CNS
HCT-116 colon = test system: HCT-116 colon
COLO 205 colon = test system: COLO 205 colon
TK-10 renal = test system: TK-10 renal
NCI/ADR-RES ovarian = test system: NCI/ADR-RES ovarian
A549 NSCLC = test system: A549 NSCLC
CCRF-CEM leukemia = test system: CCRF-CEM leukemia
LOX IMVI melanoma = test system: LOX IMVI melanoma
SF-268 CNS = test system: SF-268 CNS
SNB-75 CNS = test system: SNB-75 CNS
HS 578T breast = test system: HS 578T breast
OVCAR-3 ovarian = test system: OVCAR-3 ovarian
RXF 393 renal = test system: RXF 393 renal
HOP-92 NSCLC = test system: HOP-92 NSCLC

Structure (SMILES): Cc1ccc(NC(=O)c2cccc(OP(=O)(O)Nc3ccc(C)cc3)c2)cc1
- TGI (OVCAR-4 ovarian): > 100000 nM
- TGI (SW-620 colon): > 100000 nM
- TGI (HCC-2998 colon): > 100000 nM
- TGI (SR leukemia): > 100000 nM
- TGI (UACC-257 melanoma): > 100000 nM
- TGI (HOP-62 NSCLC): > 100000 nM
- TGI (KM12 colon): > 100000 nM
- TGI (ACHN renal): > 100000 nM
- TGI (OVCAR-5 ovarian): > 100000 nM
- TGI (HCT-15 colon): > 100000 nM
- TGI (OVCAR-8 ovarian): > 100000 nM
- TGI (NCI-H460 lung): > 100000 nM
- TGI (786-0 renal): > 100000 nM
- TGI (MDA-N): > 100000 nM
- TGI (EKVX NSCLC): > 100000 nM
- TGI (SN12C renal): > 100000 nM
- TGI (UO-31 renal): > 100000 nM
- TGI (A498 renal): > 100000 nM
- TGI (CAKI-1 renal): > 100000 nM
- TGI (SK-MEL-5 melanoma): > 100000 nM
- TGI (NCI-H226 lung): > 100000 nM
- TGI (NCI-H522 lung): > 100000 nM
- TGI (SK-OV-3 ovarian): > 100000 nM
- TGI (DU-145 prostate): > 100000 nM
- TGI (RPMI-8226 leukemia): > 100000 nM
- TGI (HL-60(TB) leukemia): > 100000 nM
- TGI (HT29 colon): > 100000 nM
- TGI (M14 melanoma): > 100000 nM
- TGI (MOLT-4 leukemia): > 100000 nM
- TGI (MCF7 breast): > 100000 nM
- TGI (K-562 leukemia): > 100000 nM
- TGI (MALME-3M melanoma): > 100000 nM
- TGI (SK-MEL-2 melanoma): > 100000 nM
- TGI (IGROV1 ovarian): > 100000 nM
- TGI (SF-539 CNS): > 100000 nM
- TGI (UACC-62 melanoma): > 100000 nM
- TGI (SF-295 CNS): > 100000 nM
- TGI (T-47D breast): > 100000 nM
- TGI (SNB-19 CNS): > 100000 nM
- TGI (MDA-MB-231 breast): > 100000 nM
- TGI (BT-549 breast): > 100000 nM
- TGI (SK-MEL-28 melanoma): > 100000 nM
- TGI (NCI-H23 lung): > 100000 nM
- TGI (MDA-MB-435): > 100000 nM
- TGI (PC-3 prostate): > 100000 nM
- TGI (U251 CNS): > 100000 nM
- TGI (HCT-116 colon): > 100000 nM
- TGI (COLO 205 colon): > 100000 nM
- TGI (TK-10 renal): > 100000 nM
- TGI (NCI/ADR-RES ovarian): > 100000 nM
- TGI (A549 NSCLC): > 100000 nM
- TGI (CCRF-CEM leukemia): > 100000 nM
- TGI (LOX IMVI melanoma): > 100000 nM
- TGI (SF-268 CNS): > 100000 nM
- TGI (SNB-75 CNS): > 100000 nM
- TGI (HS 578T breast): > 100000 nM
- TGI (OVCAR-3 ovarian): > 100000 nM
- TGI (RXF 393 renal): > 100000 nM
- TGI (HOP-92 NSCLC): > 100000 nM

Structure (SMILES): O=[N+]([O-])c1cccc2nc3ccccc3c(NCCC[N+]3([O-])CCOCC3)c12
- TGI (OVCAR-4 ovarian): 455 nM
- TGI (SW-620 colon): 1600 nM
- TGI (HCC-2998 colon): 39.3 nM
- TGI (SR leukemia): > 40800 nM
- TGI (UACC-257 melanoma): 1290 nM
- TGI (HOP-62 NSCLC): 689 nM
- TGI (KM12 colon): 538 nM
- TGI (ACHN renal): 3810 nM
- TGI (OVCAR-5 ovarian): 1500 nM
- TGI (HCT-15 colon): 6420 nM
- TGI (OVCAR-8 ovarian): 3440 nM
- TGI (NCI-H460 lung): 462 nM
- TGI (786-0 renal): 729 nM
- TGI (MDA-N): 277 nM
- TGI (EKVX NSCLC): 2010 nM
- TGI (SN12C renal): 993 nM
- TGI (UO-31 renal): 4590 nM
- TGI (A498 renal): 422 nM
- TGI (CAKI-1 renal): 12100 nM
- TGI (SK-MEL-5 melanoma): 241 nM
- TGI (NCI-H226 lung): 529 nM
- TGI (NCI-H522 lung): 462 nM
- TGI (SK-OV-3 ovarian): 1530 nM
- TGI (DU-145 prostate): 868 nM
- TGI (RPMI-8226 leukemia): 4690 nM
- TGI (HL-60(TB) leukemia): 1020 nM
- TGI (HT29 colon): 761 nM
- TGI (M14 melanoma): 921 nM
- TGI (MOLT-4 leukemia): > 100000 nM
- TGI (MCF7 breast): 725 nM
- TGI (K-562 leukemia): > 100000 nM
- TGI (MALME-3M melanoma): 347 nM
- TGI (SK-MEL-2 melanoma): 375 nM
- TGI (IGROV1 ovarian): 608 nM
- TGI (SF-539 CNS): 1300 nM
- TGI (UACC-62 melanoma): 319 nM
- TGI (SF-295 CNS): 1380 nM
- TGI (T-47D breast): 919 nM
- TGI (SNB-19 CNS): 2800 nM
- TGI (MDA-MB-231 breast): 948 nM
- TGI (BT-549 breast): 1400 nM
- TGI (SK-MEL-28 melanoma): 984 nM
- TGI (NCI-H23 lung): 316 nM
- TGI (MDA-MB-435): 331 nM
- TGI (PC-3 prostate): 2220 nM
- TGI (U251 CNS): 964 nM
- TGI (HCT-116 colon): 533 nM
- TGI (COLO 205 colon): 240 nM
- TGI (TK-10 renal): 3330 nM
- TGI (NCI/ADR-RES ovarian): 39200 nM
- TGI (A549 NSCLC): 871 nM
- TGI (CCRF-CEM leukemia): 583 nM
- TGI (LOX IMVI melanoma): 1620 nM
- TGI (SF-268 CNS): 1910 nM
- TGI (SNB-75 CNS): 683 nM
- TGI (HS 578T breast): > 100000 nM
- TGI (OVCAR-3 ovarian): 474 nM
- TGI (RXF 393 renal): 366 nM
- TGI (HOP-92 NSCLC): 290 nM
